Test results taken from patent US20260262643A1, “HERBICIDAL BENZOXAZINES” (FMC CORPORATION, priority 2022, published 2026).

Tests used:
blackgrass [1] = experiment: Test C preemergence; format: in vivo, Alopecurus myosuroides; details: 0 to 100 scale (0 no effect, 100 complete control)
Outline: (§1)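 Pre: seeds in loam/sand, directed soil spray. Post: 1–2 leaf plants, 2–10 cm. Cmpd in non-phytotoxic solvent + surfactant. Greenhouse 10 d; visual rating vs untreated, 0 = none, 100 = complete control.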

green foxtail [2] = experiment: Test C postemergence; format: in vivo, Setaria viridis; details: 10 days
Outline: as §1

corn [3] = experiment: Test C postemergence; format: in vivo, Zea mays; details: 10 days
Outline: as §1

rice = experiment: Test D flooded paddy test; format: in vivo, Oryza sativa; details: 250 g ai/ha, applied to paddy water, visual rating after 13 to 14 days, scale 0 to 100 (0 no effect, 100 complete control)
Outline: (§2)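 Visual ratings from 0, meaning no effect, to 100, meaning complete control, were assigned against untreated controls 13 to 14 days after compounds were added to the floodwater of pots kept 3 cm deep, with plants at the 2-leaf stage.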

pigweed, palmer [4] = experiment: Test C preemergence; format: in vivo, Amaranthus palmeri; details: 0 to 100 scale (0 no effect, 100 complete control)
Outline: as §1

ragweed [5] = experiment: Test C preemergence; format: in vivo, Ambrosia artemisiifolia; details: 0 to 100 scale (0 no effect, 100 complete control)
Outline: as §1

oat, wild [6] = experiment: Test C preemergence; format: in vivo, Avena fatua; details: 0 to 100 scale (0 no effect, 100 complete control)
Outline: as §1

wheat [7] = experiment: Test C preemergence; format: in vivo, Triticum aestivum; details: 0 to 100 scale (0 no effect, 100 complete control)
Outline: as §1

soybean [8] = experiment: Test C preemergence; format: in vivo, Glycine max; details: 0 to 100 scale (0 no effect, 100 complete control)
Outline: as §1

horseweed = experiment: Test C postemergence; format: in vivo, Erigeron canadensis; details: 10 days
Outline: as §1

oat, wild [9] = experiment: Test C postemergence; format: in vivo, Avena fatua; details: 10 days
Outline: as §1

ryegrass, Italian [10] = experiment: Test C postemergence; format: in vivo, Lolium multiflorum; details: 10 days
Outline: as §1

green foxtail [11] = experiment: Test C preemergence; format: in vivo, Setaria viridis; details: 0 to 100 scale (0 no effect, 100 complete control)
Outline: as §1

ryegrass, Italian [12] = experiment: Test C preemergence; format: in vivo, Lolium multiflorum; details: 0 to 100 scale (0 no effect, 100 complete control)
Outline: as §1

barnyardgrass [13] = experiment: Test C postemergence; format: in vivo, Echinochloa crusgalli; details: 10 days
Outline: as §1

ducksalad = experiment: Test D flooded paddy test; format: in vivo, Heteranthera limosa; details: 250 g ai/ha, applied to paddy water, visual rating after 13 to 14 days, scale 0 to 100 (0 no effect, 100 complete control)
Outline: as §2

kochia [14] = experiment: Test C postemergence; format: in vivo, Bassia scoparia; details: 10 days
Outline: as §1

corn [15] = experiment: Test C preemergence; format: in vivo, Zea mays; details: 0 to 100 scale (0 no effect, 100 complete control)
Outline: as §1

pigweed, palmer [16] = experiment: Test C postemergence; format: in vivo, Amaranthus palmeri; details: 10 days
Outline: as §1

ragweed [17] = experiment: Test C postemergence; format: in vivo, Ambrosia artemisiifolia; details: 10 days
Outline: as §1

sedge, umbrella = experiment: Test D flooded paddy test; format: in vivo, Cyperus difformis; details: 250 g ai/ha, applied to paddy water, visual rating after 13 to 14 days, scale 0 to 100 (0 no effect, 100 complete control)
Outline: as §2

barnyardgrass [18] = experiment: Test D flooded paddy test; format: in vivo, Echinochloa crus-galli; details: 250 g ai/ha, applied to paddy water, visual rating after 13 to 14 days, scale 0 to 100 (0 no effect, 100 complete control)
Outline: as §2

soybean [19] = experiment: Test C postemergence; format: in vivo, Glycine max; details: 10 days
Outline: as §1

barnyardgrass [20] = experiment: Test C preemergence; format: in vivo, Echinochloa crusgalli; details: 0 to 100 scale (0 no effect, 100 complete control)
Outline: as §1

kochia [21] = experiment: Test C preemergence; format: in vivo, Bassia scoparia; details: 0 to 100 scale (0 no effect, 100 complete control)
Outline: as §1

wheat [22] = experiment: Test C postemergence; format: in vivo, Triticum aestivum; details: 10 days
Outline: as §1

blackgrass [23] = experiment: Test C postemergence; format: in vivo, Alopecurus myosuroides; details: 10 days
Outline: as §1

[24] = Preemergence, 500 g ai/ha, visual rating after 10 days
[25] = Test C, preemergence, 125 g ai/ha
[26] = 125 g ai/ha, postemergence, 0 to 100 scale, 0 no effect, 100 complete control
[27] = Postemergence, 500 g ai/ha, visual 0 to 100 scale (0 no effect, 100 complete control)

SMILES: CCc1ncn(-c2ccc(OC)c(C(=O)N3C[C@H](C)Oc4c(C)cccc43)c2)n1 [Compound 211]
- Plant response rating, Blackgrass (blackgrass [1]; [24]): 90
- Blackgrass plant response rating (blackgrass [1]; [25]): 90
- Plant response rating, Foxtail, Green (green foxtail [2]; [26]): 90
- Plant response rating, Foxtail, Green (green foxtail [2]; [27]): 90
- Plant response rating, Corn (corn [3]; [26]): 70
- Plant response rating, Corn (corn [3]; [27]): 90
- Plant response rating, Rice (Flood) (rice): 50
- Plant response rating, Pigweed, Palmer (pigweed, palmer [4]; [24]): 100
- Pigweed, Palmer plant response rating (pigweed, palmer [4]; [25]): 100
- Plant response rating, Ragweed (ragweed [5]; [24]): 100
- Ragweed plant response rating (ragweed [5]; [25]): 100
- Plant response rating, Oat, Wild (oat, wild [6]; [24]): 90
- Oat, Wild plant response rating (oat, wild [6]; [25]): 70
- Plant response rating, Wheat (wheat [7]; [24]): 80
- Wheat plant response rating (wheat [7]; [25]): 80
- Plant response rating, Soybean (soybean [8]; [24]): 100
- Soybean plant response rating (soybean [8]; [25]): 100
- Plant response rating, Horseweed (horseweed; [26]): 80
- Plant response rating, Horseweed (horseweed; [27]): 90
- Plant response rating, Oat, Wild (oat, wild [9]; [26]): 70
- Plant response rating, Oat, Wild (oat, wild [9]; [27]): 90
- Plant response rating, Ryegrass, Italian (ryegrass, Italian [10]; [26]): 70
- Plant response rating, Ryegrass, Italian (ryegrass, Italian [10]; [27]): 90
- Plant response rating, Foxtail, Green (green foxtail [11]; [24]): 100
- Foxtail, Green plant response rating (green foxtail [11]; [25]): 0
- Plant response rating, Ryegrass, Italian (ryegrass, Italian [12]; [24]): 100
- Ryegrass, Italian plant response rating (ryegrass, Italian [12]; [25]): 100
- Plant response rating, Barnyardgrass (barnyardgrass [13]; [26]): 80
- Plant response rating, Barnyardgrass (barnyardgrass [13]; [27]): 100
- Plant response rating, Ducksalad (Flood) (ducksalad): 100
- Plant response rating, Kochia (kochia [14]; [26]): 70
- Plant response rating, Kochia (kochia [14]; [27]): 90
- Plant response rating, Corn (corn [15]; [24]): 70
- Corn plant response rating (corn [15]; [25]): 70
- Plant response rating, Pigweed, Palmer (pigweed, palmer [16]; [26]): 90
- Plant response rating, Pigweed, Palmer (pigweed, palmer [16]; [27]): 100
- Plant response rating, Ragweed (ragweed [17]; [26]): 50
- Plant response rating, Ragweed (ragweed [17]; [27]): 70
- Plant response rating, Sedge, Umbrella (Flood) (sedge, umbrella): 100
- Plant response rating, Barnyardgrass (Flood) (barnyardgrass [18]): 55
- Plant response rating, Soybean (soybean [19]; [26]): 100
- Plant response rating, Soybean (soybean [19]; [27]): 100
- Plant response rating, Barnyardgrass (barnyardgrass [20]; [24]): 100
- Barnyardgrass plant response rating (barnyardgrass [20]; [25]): 100
- Plant response rating, Kochia (kochia [21]; [24]): 100
- Kochia plant response rating (kochia [21]; [25]): 100
- Plant response rating, Wheat (wheat [22]; [26]): 70
- Plant response rating, Wheat (wheat [22]; [27]): 90
- Plant response rating, Blackgrass (blackgrass [23]; [26]): 90
- Plant response rating, Blackgrass (blackgrass [23]; [27]): 100
